Experiments:
[1] = Solubility of rofecoxib in solvent systems containing one solvent, UV spectrophotometry; assay type: physicochemical
Procedure: The solubility of rofecoxib was tested in a variety of solvent systems by UV spectrophotometry. A UV spectrophotometry method of evaluating the solubility of rofecoxib was used to determine the solubility of rofecoxib in various solvent systems. Erk et al. describes this method and is incorporated by reference herein in its entirety: Erk et al. Pharmazie. 2004 June; 59(6):453-6.
100 mg of rofecoxib was dissolved in 100 ml of methanol. Dilutions of the stock solution were made into methanol to give a final rofecoxib concentration of 5 μg/ml, 10 μg/ml, 20 μg/ml, 25 μg/ml, 30 μg/ml, 35 μg/ml, 40 μg/ml, 45 μg/ml, and 50 μg/ml. A UV spectrophotometer was utilized to read the absorbance of the samples 279.1 nm. Using Beer's law, a value for the extinction coefficient for rofecoxib was obtained. The value of the extinction coefficient of rofecoxib was determined to be 29.06 and was utilized in future experiments to determine the concentration of rofecoxib in various solvent systems.
100 mg of rofecoxib was added to 1 gram of each solvent. […] The mixtures of rofecoxib and solvents were vortexed for one minute and left at room temperature for one hour. The mixture was vortexed a second time and then left at room temperature overnight. The next morning the samples were vortexed a third time and then centrifuged at 12 k for 5 minutes. The excipient/rofecoxib mixture was transferred to a new tube being careful to not take any of the pellet. Serial dilutions of the rofecoxib solvent solutions were made (1:100 v:v), (1:1000 v/v), and (1:2000 v/v). Solvents without rofecoxib were diluted with methanol and used to blank a Beckman DU-7400 spectrophotometer. The absorbance of the samples was determined at a wavelength of 279.1 nm. The concentration of rofecoxib dissolved in the solvent was calculated using Beer's Law. Concentrations were converted from units of mg/mL to units of mg/g according to the following procedure:
(a) The volume of 1 g of solvent times the calculated mg/ml rofecoxib equals total mg of rofecoxib in 1 g of solvent. e.g. 1 g of a solvent that has a density of 1.05 g/mL is 952 μL. A rofecoxib solution with a concentration of rofecoxib of […] contains 28.17 mg of rofecoxib in 952 μL of solvent.
(b) To calculate the total volume, a mg of rofecoxib is assumed to equal to 1 μl of volume. Add volume of the solvent to the total weight of rofecoxib. 28.17 mg+1000 mg of solvent=1028.17 mg.
(c) To calculate the w/w divide the mg of rofecoxib 28.71 mg by the total weight of rofecoxib with solvent 1028.71 mg and multiply times 1000 mg to get the w/w […]/1028.71 mg*1000 mg=28.62 mg/g of solvent.

[2] = in vivo; cited from earlier work
[3] = Solubility of rofecoxib in various solvents by High Performance Liquid Chromatography; assay type: physicochemical
[4] = Stability of rofecoxib by HPLC after storage for two weeks at 40° C. and 50° C.; assay type: physicochemical
Procedure: The stability of rofecoxib was assessed by HPLC after storage for two weeks at 40° C. and for two weeks at 50° C.

Solubility of Rofecoxib ([1]; in 2-Methylpentane-2,4-diol): 0.59 mg/g
Solubility of Rofecoxib ([1]; in Acetone): 23.58 mg/g
Solubility of Rofecoxib ([1]; in Benzyl Alcohol): 19.54 mg/g
Solubility of Rofecoxib ([1]; in Diethyl sebacate): 1.3 mg/g
Solubility of Rofecoxib ([1]; in Diethylene glycol monoethyl ether): 9.07 mg/g
Solubility of Rofecoxib ([1]; in Diisopropyl adipate): 2.04 mg/g
Solubility of Rofecoxib ([1]; in Dimethyl Isosorbide): 39.14 mg/g
Solubility of Rofecoxib ([1]; in Dimethyl Sulfoxide): 143.6 mg/g
Solubility of Rofecoxib ([1]; in Ethyl acetate): 5.5 mg/g
Solubility of Rofecoxib ([1]; in Isopropyl tetradecanoate): 0.0017 mg/g
Solubility of Rofecoxib ([1]; in N-methyl-2-pyrrolidone): 198 mg/g
Solubility of Rofecoxib ([1]; in Oleic acid): 0.402 mg/g
Solubility of Rofecoxib ([1]; in Polyethylene glycol-400 (PEG)): 13.14 mg/g
Solubility of Rofecoxib ([1]; in Polysorbate 20 (PS20)): 9.18 mg/g
Solubility of Rofecoxib ([1]; in Polysorbate 80 (PS80)): 9.71 mg/g
Solubility of Rofecoxib ([1]; in Propylene Carbonate): 49.43 mg/g
Solubility of Rofecoxib ([1]; in Propylene Glycol): 0.302 mg/g
Solubility of Rofecoxib ([1]; in Propylene glycol diacetate): 6.93 mg/g
Solubility of Rofecoxib ([1]; in alpha-Terpineol 95.0+ %): 0.313 mg/g
Solubility of Rofecoxib ([3]; in 1.25% Niacinamide (Aqueous), HPLC): No observable solubility
Solubility of Rofecoxib ([3]; in 10% Sodium Lauryl Sulfate (Aqueous), HPLC): No observable solubility*
Solubility of Rofecoxib ([3]; in Dehydrated Alcohol, HPLC): No observable solubility
Solubility of Rofecoxib ([3]; in Diethyl Sebacate, HPLC): No observable solubility
Solubility of Rofecoxib ([3]; in Diethylene Glycol Monoethyl Ether, HPLC): 0.5-1.0 % w/w
Solubility of Rofecoxib ([3]; in Diisoproovl Adipate, HPLC): No observable solubility
Solubility of Rofecoxib ([3]; in Dimethyl Isosorbide, HPLC): 2.5-3.5% w/w
Solubility of Rofecoxib ([3]; in Ethyl Acetate, HPLC): <0.5% w/w
Solubility of Rofecoxib ([3]; in Glycervl Monooleate, HPLC): No observable solubility
Solubility of Rofecoxib ([3]; in Hydrochloric Acid (0.1 N), HPLC): No observable solubility
Solubility of Rofecoxib ([3]; in Laureth-4, HPLC): No observable solubility
Solubility of Rofecoxib ([3]; in Medium Chain Triglycerides, HPLC): No observable solubility
Solubility of Rofecoxib ([3]; in N-Methvl-Pyrrolidone, HPLC): 4.4-5.4 % w/w
Solubility of Rofecoxib ([3]; in Oleyl Alcohol, HPLC): No observable solubility
Solubility of Rofecoxib ([3]; in PEG400, HPLC): 1.0-1.5 % w/w
Solubility of Rofecoxib ([3]; in Polysorbate 80, HPLC): No observable solubility
Solubility of Rofecoxib ([3]; in Propylene Carbonate, HPLC): 3.4-4.3 % w/w
Solubility of Rofecoxib ([3]; in Propylene Glycol Diacetate, HPLC): <0.5 % w/w
Solubility of Rofecoxib ([3]; in Sodium Hydroxide (0.1 N), HPLC): No observable solubility
Solubility of Rofecoxib ([3]; in Sorbitol Solution, HPLC): No observable solubility
Solubility of Rofecoxib ([3]; in Water pH 3, HPLC): No observable solubility
Solubility of Rofecoxib ([3]; in Water pH 5.5, HPLC): No observable solubility
Solubility of Rofecoxib ([3]; in Water pH 7.4, HPLC): No observable solubility
Rofecoxib Concentration ([4]; Acetone, T = 0 weeks): 2.549 % w/w
Rofecoxib Concentration ([4]; Acetone, T = 2 weeks 40° C. storage): 2.549 % w/w
Rofecoxib Concentration ([4]; Acetone, T = 2 weeks 50° C. storage): 2.549 % w/w
Rofecoxib Concentration ([4]; Benzyl alcohol, T = 0 weeks): 1.447 % w/w
Rofecoxib Concentration ([4]; Benzyl alcohol, T = 2 weeks 40° C. storage): 1.474 % w/w
Rofecoxib Concentration ([4]; Benzyl alcohol, T = 2 weeks 50° C. storage): 1.470 % w/w
Rofecoxib Concentration ([4]; Diethylene glycol monoethyl ether, T = 0 weeks): 0.687 % w/w
Rofecoxib Concentration ([4]; Diethylene glycol monoethyl ether, T = 2 weeks 40° C. storage): 0.672 % w/w
Rofecoxib Concentration ([4]; Diethylene glycol monoethyl ether, T = 2 weeks 50° C. storage): 0.677 % w/w
Rofecoxib Concentration ([4]; Dimethyl isosorbide, T = 0 weeks): 2.641 % w/w
Rofecoxib Concentration ([4]; Dimethyl isosorbide, T = 2 weeks 40° C. storage): 2.515 % w/w
Rofecoxib Concentration ([4]; Dimethyl isosorbide, T = 2 weeks 50° C. storage): 2.511 % w/w
Rofecoxib Concentration ([4]; Ethyl acetate, T = 0 weeks): 0.465 % w/w
Rofecoxib Concentration ([4]; Ethyl acetate, T = 2 weeks 40° C. storage): 0.479 % w/w
Rofecoxib Concentration ([4]; Ethyl acetate, T = 2 weeks 50° C. storage): 0.476 % w/w
Rofecoxib Concentration ([4]; N-methyl-2-pyrrolidone, T = 0 weeks): 5.046 % w/w
Rofecoxib Concentration ([4]; N-methyl-2-pyrrolidone, T = 2 weeks 40° C. storage): 5.057 % w/w
Rofecoxib Concentration ([4]; N-methyl-2-pyrrolidone, T = 2 weeks 50° C. storage): 5.055 % w/w
Rofecoxib Concentration ([4]; PEG 400, T = 0 weeks): 1.013 % w/w
Rofecoxib Concentration ([4]; PEG 400, T = 2 weeks 40° C. storage): 0.987 % w/w
Rofecoxib Concentration ([4]; PEG 400, T = 2 weeks 50° C. storage): 0.993 % w/w
Rofecoxib Concentration ([4]; Propylene Carbonate, T = 0 weeks): 3.471 % w/w
Rofecoxib Concentration ([4]; Propylene Carbonate, T = 2 weeks 40° C. storage): 3.456 % w/w
Rofecoxib Concentration ([4]; Propylene Carbonate, T = 2 weeks 50° C. storage): 3.463 % w/w
Rofecoxib Concentration ([4]; Propylene Glycol Diacetate, T = 0 weeks): 0.519 % w/w
Rofecoxib Concentration ([4]; Propylene Glycol Diacetate, T = 2 weeks 40° C. storage): 0.527 % w/w
Rofecoxib Concentration ([4]; Propylene Glycol Diacetate, T = 2 weeks 50° C. storage): 0.520 % w/w
solubility after storage ([4]; two weeks at 40° C. and 50° C., in the solvents in Table 12): remained soluble
Structure (SMILES): CS(=O)(=O)c1ccc(C2=C(c3ccccc3)C(=O)OC2)cc1 [Rofecoxib]
half-life [2]: 17 h

— US11260023B2, “Topical compositions containing rofecoxib and methods of making and using the same” (BRIORI BIOTECH, LLC, priority 2020, dated 2022)
